{"source": "paper PMC12137546", "about": "“Development of a microarray based telomerase binding assay reveals unusual binding of a cytochalasin derivative” (Scientific Reports, 2025)", "key": {"[1]": {"target": "T1, telomerase reverse transcriptase (TERT) (Homo sapiens, UniProt O14746)", "T1 sequence (O14746 whole entry)": "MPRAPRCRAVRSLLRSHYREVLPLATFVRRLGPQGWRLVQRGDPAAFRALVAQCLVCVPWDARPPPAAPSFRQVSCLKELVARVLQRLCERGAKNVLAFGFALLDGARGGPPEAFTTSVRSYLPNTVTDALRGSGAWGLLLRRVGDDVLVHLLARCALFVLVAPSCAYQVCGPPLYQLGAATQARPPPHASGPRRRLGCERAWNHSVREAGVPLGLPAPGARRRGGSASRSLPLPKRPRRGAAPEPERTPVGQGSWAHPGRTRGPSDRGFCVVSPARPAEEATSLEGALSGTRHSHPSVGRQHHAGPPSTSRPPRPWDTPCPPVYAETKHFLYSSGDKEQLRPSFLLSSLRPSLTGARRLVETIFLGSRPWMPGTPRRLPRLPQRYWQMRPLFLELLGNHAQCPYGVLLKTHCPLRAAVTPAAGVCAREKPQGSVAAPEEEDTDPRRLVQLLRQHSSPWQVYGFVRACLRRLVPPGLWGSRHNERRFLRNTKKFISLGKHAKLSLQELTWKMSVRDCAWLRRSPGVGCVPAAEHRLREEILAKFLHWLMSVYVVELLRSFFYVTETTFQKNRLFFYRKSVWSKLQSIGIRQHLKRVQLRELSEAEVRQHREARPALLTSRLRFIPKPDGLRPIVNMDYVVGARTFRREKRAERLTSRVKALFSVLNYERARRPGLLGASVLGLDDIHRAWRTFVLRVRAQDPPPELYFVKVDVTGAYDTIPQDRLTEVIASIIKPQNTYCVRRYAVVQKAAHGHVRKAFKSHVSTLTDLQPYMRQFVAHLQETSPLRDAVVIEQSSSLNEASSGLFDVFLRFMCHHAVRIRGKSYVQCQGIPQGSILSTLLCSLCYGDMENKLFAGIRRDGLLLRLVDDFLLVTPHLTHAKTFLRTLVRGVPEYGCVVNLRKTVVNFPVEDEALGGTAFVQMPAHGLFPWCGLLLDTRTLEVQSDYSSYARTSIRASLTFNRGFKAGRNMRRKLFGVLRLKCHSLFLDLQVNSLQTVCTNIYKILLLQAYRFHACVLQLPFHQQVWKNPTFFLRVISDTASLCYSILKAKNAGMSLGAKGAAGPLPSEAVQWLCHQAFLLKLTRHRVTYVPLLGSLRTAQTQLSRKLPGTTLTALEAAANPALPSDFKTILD", "assay": "microscale thermophoresis; also microarray displacement of Cy5 primer cocktail (EC50 […]) and TRAP inhibition in cell lysate", "format": "binding", "set-up": "recombinant His-tagged full-length human TERT (pET28aTERT, E. coli, urea/N-lauroylsarcosine solubilized, Ni-IMAC)"}, "[2]": {"target": "T1, telomerase reverse transcriptase (TERT)", "assay": "microarray displacement of Cy5 primer cocktail from spotted TERT and lysates; TRAP inhibition in lysate at […]", "format": "binding", "set-up": "recombinant His-tagged full-length human TERT (pET28aTERT, E. coli) and cell lysates"}}}
{"smiles": "O=C(O[C@@H]1Cc2c(O)cc(O)cc2O[C@@H]1c1cc(O)c(O)c(O)c1)c1cc(O)c(O)c(O)c1", "note": "[EGCG, epigallocatechin-3-gallate]", "values": [{"measurement": "Kd", "setting": "[1]", "result": "~26", "unit": "µM"}]}
{"smiles": "C=C1[C@@H](C)C2[C@H](Cc3ccc(I)cc3)NC(=O)[C@@]23C(/C=C/C[C@H](C)C[C@@](C)(O)/C=C/[C@H]3OC(C)=O)[C@@H]1O", "note": "(some centres unmarked) [compound 7, 4’-iodo cytochalasin H]", "values": [{"measurement": "EC50", "setting": "[2]", "result": "2.76 to 4.41", "unit": "µM"}]}
